The nature of this data set: Long-term storage of the active ingredient as a liquid eye drop (impurity formation). The format is physicochemical. The source says: The present invention is to provide a composition capable of providing an eye drop treatment for various eye diseases. For this purpose, the composition has the essential condition of securing the stability of the active ingredient in a liquid state as an eye drop for about six months or more. […] And as a result of confirming a structure of the corresponding impurity, it was confirmed that the impurity is 3-phenyl-4-propyl-1-(N-oxopyridin-2-yl)-1H-pyrazol-5-ol (hereinafter, N-oxopyridine compound), in which an N-oxide structure is formed in a pyridine structure of the active ingredient. If the pH condition is adjusted to a neutral region where the active ingredient is stable, most impurities are controlled to be within about 0.5%. However, it was confirmed that the N-oxopyridine compound drastically increases to a level exceeding about 30% with a decrease in the active ingredient content even when the pH is controlled.

Results on one compound are retold here after patent US20250281472A1, “OPHTHALMIC COMPOSITION INHIBITING OCCURRENCE OF N-OXOPYRIDINE COMPOUND FOR PREVENTING OR TREATING EYE DISEASE” (Samjin Pharmaceutical Co., Ltd., priority 2021, published 2025).

On to `CCCc1c(-c2ccccc2)nn(-c2ccccn2)c1O` [3-phenyl-4-propyl-1-(pyridin-2-yl)-1H-pyrazol-5-ol], for which the “level of N-oxopyridine compound” value (liquid eye drop stored about six months or more, long-term storage condition, pH controlled to neutral region) is recorded as “exceeding 30%”. Moreover, the “most impurities (other than N-oxopyridine compound)” value (liquid eye drop, pH adjusted to a neutral region) is recorded as no more than 0.5%.
